Reference: ChEMBL document CHEMBL3774354, “Discovery of Selective Histone Deacetylase 6 Inhibitors Using the Quinazoline as the Cap for the Treatment of Cancer” (J Med Chem, 2016)
The source made the active and inactive calls. No cut-off for these calls is given here.

Tests used:
Mus musculus [1] = assay: Toxicity in Balb/c nude mouse xenografted with human HCT116 cells assessed as death at 50 mg/kg, iv q2d for 9 days; type: organism-based, HCT-116; conditions: in vivo, 216 h
Mus musculus [2] = assay: Toxicity in Balb/c nude mouse xenografted with human HCT116 cells assessed as death at 25 mg/kg, po q2d for 8 days; type: organism-based, HCT-116; conditions: in vivo, 192 h
Mus musculus [3] = assay: Toxicity in NOD/SCID mouse xenografted with human Ramos cells assessed as death at 40 mg/kg, po q2d for 6 days; type: organism-based; conditions: in vivo, 144 h
Ramos [4] = assay: Antitumor activity against human Ramos cells xenografted in orally dosed NOD/SCID mouse assessed as tumor mass reduction administered as q2d for 6 days; type: functional, organism-based
[5] = target: T1, Protein deacetylase HDAC6 (Homo sapiens, UniProt Q9UBN7); assay: Inhibition of HDAC6 in human HeLa cells assessed as induction of tubulin acetylation incubated for 6 hrs by cytoblot assay; type: cell-based
T1 sequence (Q9UBN7 whole entry): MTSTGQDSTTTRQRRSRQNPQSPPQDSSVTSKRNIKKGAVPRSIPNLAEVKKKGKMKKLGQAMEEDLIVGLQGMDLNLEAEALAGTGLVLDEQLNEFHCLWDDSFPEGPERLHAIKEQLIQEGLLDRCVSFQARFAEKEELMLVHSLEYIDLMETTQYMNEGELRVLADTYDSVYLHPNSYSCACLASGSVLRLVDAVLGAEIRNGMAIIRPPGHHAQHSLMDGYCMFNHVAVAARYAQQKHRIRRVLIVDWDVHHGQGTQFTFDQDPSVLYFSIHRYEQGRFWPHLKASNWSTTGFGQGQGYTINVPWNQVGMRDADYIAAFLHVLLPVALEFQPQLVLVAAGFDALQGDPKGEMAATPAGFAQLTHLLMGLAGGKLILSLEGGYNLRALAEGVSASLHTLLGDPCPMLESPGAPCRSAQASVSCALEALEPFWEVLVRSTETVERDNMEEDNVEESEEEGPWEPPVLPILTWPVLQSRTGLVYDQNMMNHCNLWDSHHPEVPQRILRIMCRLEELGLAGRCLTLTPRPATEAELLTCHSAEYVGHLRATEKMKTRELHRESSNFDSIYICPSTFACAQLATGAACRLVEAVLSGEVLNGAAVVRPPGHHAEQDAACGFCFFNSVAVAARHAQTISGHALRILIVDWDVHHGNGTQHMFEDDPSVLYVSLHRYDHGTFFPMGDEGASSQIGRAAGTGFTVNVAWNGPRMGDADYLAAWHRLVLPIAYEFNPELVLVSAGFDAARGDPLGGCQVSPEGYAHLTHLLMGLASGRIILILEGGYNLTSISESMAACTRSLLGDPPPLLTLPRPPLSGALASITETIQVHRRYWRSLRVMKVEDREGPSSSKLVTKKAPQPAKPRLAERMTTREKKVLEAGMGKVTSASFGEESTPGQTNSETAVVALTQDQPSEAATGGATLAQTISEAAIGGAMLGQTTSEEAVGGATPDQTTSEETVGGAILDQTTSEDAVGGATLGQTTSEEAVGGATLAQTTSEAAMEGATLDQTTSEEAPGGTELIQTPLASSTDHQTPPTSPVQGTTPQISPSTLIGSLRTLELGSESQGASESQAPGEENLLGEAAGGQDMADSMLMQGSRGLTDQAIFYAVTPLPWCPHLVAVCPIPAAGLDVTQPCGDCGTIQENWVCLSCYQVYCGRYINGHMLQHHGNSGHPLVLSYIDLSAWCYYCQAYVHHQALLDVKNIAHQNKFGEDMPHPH

A-375 = assay: Antiproliferative activity against human A375 cells after 72 hrs by MTT assay; type: functional, cell-based; conditions: A-375, 72 h
Histone deacetylase 5 = Histone deacetylase 5 (Homo sapiens, UniProt Q9UQL6); assay: Inhibition of recombinant HDAC5 (unknown origin) using AMC labeled AC-peptide as substrate at 10 uM incubated for 1 hr by fluorescence analysis
Histone deacetylase 5, sequence (Q9UQL6 whole entry): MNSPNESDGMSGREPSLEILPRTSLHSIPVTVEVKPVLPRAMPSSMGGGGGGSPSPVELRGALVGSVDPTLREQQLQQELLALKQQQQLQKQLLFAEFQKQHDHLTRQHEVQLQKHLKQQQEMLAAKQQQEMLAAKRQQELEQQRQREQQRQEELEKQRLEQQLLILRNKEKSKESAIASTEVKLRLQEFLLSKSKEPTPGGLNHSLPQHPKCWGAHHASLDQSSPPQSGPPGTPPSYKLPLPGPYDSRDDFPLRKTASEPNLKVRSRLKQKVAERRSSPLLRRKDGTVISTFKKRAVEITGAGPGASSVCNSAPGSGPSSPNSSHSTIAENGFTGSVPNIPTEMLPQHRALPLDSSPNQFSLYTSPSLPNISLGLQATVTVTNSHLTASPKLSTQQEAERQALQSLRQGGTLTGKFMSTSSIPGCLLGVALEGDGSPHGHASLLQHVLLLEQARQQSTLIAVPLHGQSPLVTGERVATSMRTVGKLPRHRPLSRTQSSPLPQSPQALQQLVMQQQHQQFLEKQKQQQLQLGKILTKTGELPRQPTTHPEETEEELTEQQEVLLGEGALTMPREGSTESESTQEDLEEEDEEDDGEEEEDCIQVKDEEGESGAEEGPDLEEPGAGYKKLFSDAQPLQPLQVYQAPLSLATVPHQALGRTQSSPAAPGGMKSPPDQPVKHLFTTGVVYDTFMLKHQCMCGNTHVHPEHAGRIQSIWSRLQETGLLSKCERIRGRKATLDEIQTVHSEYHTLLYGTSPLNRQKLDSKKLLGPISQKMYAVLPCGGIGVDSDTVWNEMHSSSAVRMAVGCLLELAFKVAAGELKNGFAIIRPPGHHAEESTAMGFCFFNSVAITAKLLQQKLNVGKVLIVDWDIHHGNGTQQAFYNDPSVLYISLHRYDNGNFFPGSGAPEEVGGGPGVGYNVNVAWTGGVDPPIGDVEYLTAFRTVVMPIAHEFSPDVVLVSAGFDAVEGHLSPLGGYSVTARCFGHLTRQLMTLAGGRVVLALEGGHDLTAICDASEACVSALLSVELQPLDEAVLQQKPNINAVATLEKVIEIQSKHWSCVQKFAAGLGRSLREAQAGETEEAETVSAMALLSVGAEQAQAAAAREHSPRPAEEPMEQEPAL

[6] = target: Histone deacetylase 7 (Homo sapiens) (UniProt Q8WUI4); assay: Inhibition of recombinant HDAC7 (unknown origin) using AMC labeled AC-peptide as substrate at 10 uM incubated for 1 hr by fluorescence analysis
Histone deacetylase 7 (Homo sapiens), sequence (Q8WUI4 whole entry): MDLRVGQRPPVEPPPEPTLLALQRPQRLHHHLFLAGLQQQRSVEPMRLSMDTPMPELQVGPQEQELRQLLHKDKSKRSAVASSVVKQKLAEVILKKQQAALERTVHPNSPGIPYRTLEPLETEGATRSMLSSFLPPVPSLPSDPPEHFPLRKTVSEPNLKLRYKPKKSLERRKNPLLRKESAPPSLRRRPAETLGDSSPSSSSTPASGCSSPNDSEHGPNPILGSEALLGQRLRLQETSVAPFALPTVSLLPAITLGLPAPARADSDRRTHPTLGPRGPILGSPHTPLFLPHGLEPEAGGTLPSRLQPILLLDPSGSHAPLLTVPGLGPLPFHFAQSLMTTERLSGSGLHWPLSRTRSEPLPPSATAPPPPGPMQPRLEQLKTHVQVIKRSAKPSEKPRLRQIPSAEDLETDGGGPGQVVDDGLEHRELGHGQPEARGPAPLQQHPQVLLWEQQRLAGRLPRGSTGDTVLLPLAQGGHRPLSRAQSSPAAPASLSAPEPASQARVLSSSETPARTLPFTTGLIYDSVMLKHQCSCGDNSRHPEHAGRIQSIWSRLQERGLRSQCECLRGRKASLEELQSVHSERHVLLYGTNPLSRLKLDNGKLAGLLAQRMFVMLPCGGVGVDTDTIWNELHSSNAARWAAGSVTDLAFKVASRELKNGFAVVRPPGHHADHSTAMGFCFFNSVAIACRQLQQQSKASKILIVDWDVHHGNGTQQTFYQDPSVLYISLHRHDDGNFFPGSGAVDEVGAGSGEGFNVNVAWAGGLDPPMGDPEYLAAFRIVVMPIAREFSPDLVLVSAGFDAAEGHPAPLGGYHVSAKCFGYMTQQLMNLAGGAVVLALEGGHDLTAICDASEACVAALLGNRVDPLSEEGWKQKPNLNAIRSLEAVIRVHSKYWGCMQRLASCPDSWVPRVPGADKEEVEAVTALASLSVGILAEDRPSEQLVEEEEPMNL

[7] = target: Histone deacetylase 11 (Homo sapiens) (UniProt Q96DB2); assay: Inhibition of recombinant HDAC11 (unknown origin) using AMC labeled AC-peptide as substrate at 10 uM incubated for 1 hr by fluorescence analysis
Histone deacetylase 11 (Homo sapiens), sequence (Q96DB2 whole entry): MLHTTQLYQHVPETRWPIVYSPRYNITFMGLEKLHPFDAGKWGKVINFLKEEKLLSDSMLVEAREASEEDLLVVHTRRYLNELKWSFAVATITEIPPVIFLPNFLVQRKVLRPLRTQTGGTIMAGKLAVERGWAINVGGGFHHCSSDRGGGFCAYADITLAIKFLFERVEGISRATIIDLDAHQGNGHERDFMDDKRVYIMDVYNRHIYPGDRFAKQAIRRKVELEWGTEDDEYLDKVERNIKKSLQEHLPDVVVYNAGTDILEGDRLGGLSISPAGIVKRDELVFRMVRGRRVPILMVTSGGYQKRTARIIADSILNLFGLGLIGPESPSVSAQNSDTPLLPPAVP

MV4-11 = assay: Cytotoxicity against human MV4-11 cells after 72 hrs by MTT assay; type: functional, cell-based; conditions: MV4-11, 72 h
Ramos [8] = assay: Cytotoxicity against human Ramos cells after 72 hrs by MTT assay; type: functional, cell-based
A2780 = assay: Cytotoxicity against human A2780 cells after 72 hrs by MTT assay; type: functional, cell-based; conditions: A2780, 72 h
[9] = Cytotoxicity against human SKOV3 cells after 72 hrs by MTT assay; type: functional, cell-based; conditions: SK-OV-3, 72 h
[10] = Cytotoxicity against human H460 cells after 72 hrs by MTT assay; type: functional, cell-based; conditions: NCI-H460, 72 h
A549 = assay: Cytotoxicity against human A549 cells after 72 hrs by MTT assay; type: functional, cell-based; conditions: A549, 72 h
[11] = Cytotoxicity against human HCT116 cells after 72 hrs by MTT assay; type: functional, cell-based; conditions: HCT-116, 72 h
HT-29 = assay: Cytotoxicity against human HT-29 cells after 72 hrs by MTT assay; type: functional, cell-based; conditions: HT-29, 72 h
[12] = Cmax in Sprague-Dawley rat at 12 mg/kg, iv administered by bolus injection measured up to 24 hrs by LC-MS/MS analysis; type: ADME, organism-based; design: dose 12 mg/kg, route intravenous; conditions: in vivo
[13] = Systemic clearance in Sprague-Dawley rat at 12 mg/kg, po measured up to 24 hrs by LC-MS/MS analysis; type: ADME, organism-based; conditions: in vivo
Rattus norvegicus = assay: Volume of distribution at steady state in Sprague-Dawley rat at 12 mg/kg, po measured up to 24 hrs by LC-MS/MS analysis; type: ADME, organism-based; conditions: in vivo
[14] = AUC (0 to infinity) in Sprague-Dawley rat at 12 mg/kg, po measured up to 24 hrs by LC-MS/MS analysis; type: ADME, organism-based; design: dose 12 mg/kg, route oral, time infinity; conditions: in vivo
[15] = Cmax in Sprague-Dawley rat at 12 mg/kg, po measured up to 24 hrs by LC-MS/MS analysis; type: ADME, organism-based; design: dose 12 mg/kg, route oral; conditions: in vivo
[16] = Antitumor activity against human HCT116 cells xenografted in Balb/c nude mouse assessed as tumor mass change at 50 mg/kg, iv q2d for 9 days; type: functional, HCT-116
Ramos [17] = assay: Antitumor activity against human Ramos cells xenografted in NOD/SCID mouse assessed as tumor mass change at 80 mg/kg, po q2d for 6 days; type: functional
Mus musculus [18] = assay: Toxicity in Balb/c nude mouse xenografted with human HCT116 cells assessed as change in body weight at 50 mg/kg, iv q2d for 9 days; type: organism-based, HCT-116; conditions: in vivo, 216 h
Histone deacetylase 7 = Histone deacetylase 7 (Homo sapiens, UniProt Q8WUI4)
Histone deacetylase 7, sequence (Q8WUI4 whole entry): as the sequence (Q8WUI4 whole entry) above
Description: Inhibition of recombinant HDAC7 (unknown origin) using AMC labeled AC-peptide as substrate incubated for 1 hr by fluorescence analysis

Histone deacetylase 9 = Histone deacetylase 9 (Homo sapiens, UniProt Q9UKV0)
Histone deacetylase 9, sequence (Q9UKV0 whole entry): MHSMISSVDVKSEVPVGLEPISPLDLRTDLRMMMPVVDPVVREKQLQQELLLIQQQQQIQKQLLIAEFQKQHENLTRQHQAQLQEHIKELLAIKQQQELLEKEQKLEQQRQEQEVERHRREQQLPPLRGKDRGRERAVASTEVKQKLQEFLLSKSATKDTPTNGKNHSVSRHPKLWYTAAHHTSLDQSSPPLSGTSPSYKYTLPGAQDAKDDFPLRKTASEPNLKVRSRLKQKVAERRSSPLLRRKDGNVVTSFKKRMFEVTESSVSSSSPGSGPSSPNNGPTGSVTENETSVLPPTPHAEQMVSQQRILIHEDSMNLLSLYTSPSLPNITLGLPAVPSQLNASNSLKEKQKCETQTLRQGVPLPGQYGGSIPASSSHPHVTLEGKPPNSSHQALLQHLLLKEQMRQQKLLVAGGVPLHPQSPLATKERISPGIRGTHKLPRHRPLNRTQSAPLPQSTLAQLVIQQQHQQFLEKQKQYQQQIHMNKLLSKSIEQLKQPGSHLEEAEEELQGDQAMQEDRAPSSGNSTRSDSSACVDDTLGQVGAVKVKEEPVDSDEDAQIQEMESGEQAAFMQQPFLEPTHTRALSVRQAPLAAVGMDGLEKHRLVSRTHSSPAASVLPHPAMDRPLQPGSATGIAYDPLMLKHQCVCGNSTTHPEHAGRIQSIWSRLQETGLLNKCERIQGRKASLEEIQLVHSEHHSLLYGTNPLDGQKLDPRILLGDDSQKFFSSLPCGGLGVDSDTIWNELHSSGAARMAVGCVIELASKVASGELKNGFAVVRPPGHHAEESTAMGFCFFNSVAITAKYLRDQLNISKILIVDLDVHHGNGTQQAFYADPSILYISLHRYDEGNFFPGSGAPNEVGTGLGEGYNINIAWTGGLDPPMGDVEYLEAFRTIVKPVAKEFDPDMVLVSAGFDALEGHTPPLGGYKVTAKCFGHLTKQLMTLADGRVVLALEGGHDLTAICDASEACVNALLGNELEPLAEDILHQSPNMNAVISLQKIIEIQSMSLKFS
Description: Inhibition of recombinant HDAC9 (unknown origin) using AMC labeled AC-peptide as substrate incubated for 1 hr by fluorescence analysis

Histone deacetylase 11 = Histone deacetylase 11 (Homo sapiens, UniProt Q96DB2)
Histone deacetylase 11, sequence (Q96DB2 whole entry): as the sequence (Q96DB2 whole entry) above
Description: Inhibition of recombinant HDAC11 (unknown origin) using AMC labeled AC-peptide as substrate incubated for 1 hr by fluorescence analysis

COc1ccc(N(C)c2nc(C)nc3ccccc23)cc1OCCCC(=O)NO
Activity (Mus musculus [1]): Non-toxic
Activity (Mus musculus [2]): Non-toxic
Activity (Mus musculus [3]): Non-toxic
inhibition (Ramos [4]): Dose-dependent effect
EC50 [5]: 58.9 nM
IC50 (A-375): 45 nM
inhibition (Histone deacetylase 5): inactive
inhibition [6]: inactive
inhibition [7]: inactive
IC50 (MV4-11): 60 nM
IC50 (Ramos [8]): 71 nM
IC50 (A2780): 46 nM
IC50 [9]: 50 nM
IC50 [10]: 55 nM
IC50 (A549): 104 nM
IC50 [11]: 35 nM
IC50 (HT-29): 72 nM
Cmax [12]: 2210 ng/mL
CL/F [13]: 215 mL/min/kg
Vdss (Rattus norvegicus): 154.811 L/kg
AUC(0-inf) [14]: 1240 ng·h/mL
Cmax [15]: 238 ng/mL
Activity [16]: 76.3%
Activity (Ramos [17]): 58.79%
Activity (Mus musculus [18]): -5.7%
IC50 (Histone deacetylase 7): > 10 µM
IC50 (Histone deacetylase 9): > 10 µM
IC50 (Histone deacetylase 11): > 10 µM
